Measurements reported in the supplement of paper PMC13380429.

Legend:
Conditions in all cases: 72 h
Caco-2 [1] = test: cell viability relative to DMSO; higher = less toxic
Calu-3 [2] = test: as above
HepG2 [3] = test: as above
U2OS [4] = test: as above
Vero E6 [5] = test: as above
Caco-2 [6] = test: relative viability EC50 (midpoint between 100% and the lowest measured viability); higher = less toxic
Calu-3 [7] = test: as above
HepG2 [8] = test: as above
U2OS [9] = test: as above
Vero E6 [10] = test: as above
Caco-2 [11] = test: drug sensitivity score (DSS) for viability; higher = more toxic; extreme values may be limits of the assay
Calu-3 [12] = test: as above
HepG2 [13] = test: as above
U2OS [14] = test: as above
Vero E6 [15] = test: as above

Structure (SMILES) | cell viability (Caco-2 [1]; 1 nM) [%] | cell viability (Caco-2 [1]; 10 nM) [%] | cell viability (Caco-2 [1]; 100 nM) [%] | cell viability (Caco-2 [1]; 1000 nM) [%] | cell viability (Caco-2 [1]; 10000 nM) [%] | cell viability (Calu-3 [2]; 1 nM) [%] | cell viability (Calu-3 [2]; 10 nM) [%] | cell viability (Calu-3 [2]; 100 nM) [%] | cell viability (Calu-3 [2]; 1000 nM) [%] | cell viability (Calu-3 [2]; 10000 nM) [%] | cell viability (HepG2 [3]; 1 nM) [%] | cell viability (HepG2 [3]; 10 nM) [%] | cell viability (HepG2 [3]; 100 nM) [%] | cell viability (HepG2 [3]; 1000 nM) [%] | cell viability (HepG2 [3]; 10000 nM) [%] | cell viability (U2OS [4]; 1 nM) [%] | cell viability (U2OS [4]; 10 nM) [%] | cell viability (U2OS [4]; 100 nM) [%] | cell viability (U2OS [4]; 1000 nM) [%] | cell viability (U2OS [4]; 10000 nM) [%] | cell viability (Vero E6 [5]; 1 nM) [%] | cell viability (Vero E6 [5]; 10 nM) [%] | cell viability (Vero E6 [5]; 100 nM) [%] | cell viability (Vero E6 [5]; 1000 nM) [%] | cell viability (Vero E6 [5]; 10000 nM) [%] | relative viability EC50 (Caco-2 [6]) [µM] | relative viability EC50 (Calu-3 [7]) [µM] | relative viability EC50 (HepG2 [8]) [µM] | relative viability EC50 (U2OS [9]) [µM] | relative viability EC50 (Vero E6 [10]) [µM] | drug sensitivity score (Caco-2 [11]) | drug sensitivity score (Calu-3 [12]) | drug sensitivity score (HepG2 [13]) | drug sensitivity score (U2OS [14]) | drug sensitivity score (Vero E6 [15])
Cc1ccc(Nc2c(F)cccc2Cl)c(CC(=O)O)c1 [lumiracoxib] | 93 | 97 | 95 | 100 | 107 | 93.7 | 93.9 | 90.8 | 98.9 | 104 | 97 | 103 | 109 | 106 | 118 | 94.1 | 98.7 | 94.8 | 103 | 105 | 95.4 | 94.8 | 105 | 100 | 100 | > 10 | > 10 | > 10 | > 10 | > 10 | 0 | 0 | 0 | 0 | 0
C=CCc1ccc(O)c(-c2cc(CC=C)ccc2O)c1 [magnolol] | 104 | 95.3 | 88.6 | 102 | 89.5 | 99.3 | 90.3 | 90.3 | 99.4 | 110 | 97.8 | 85.7 | 97.8 | 102 | 106 | 96.7 | 102 | 99.2 | 102 | 95.3 | 98.6 | 98.3 | 98.9 | 101 | 94.8 | > 10 | > 10 | > 10 | > 10 | > 10 | 0 | 0 | 0 | 0 | 0
CN1C[C@@H](NS(=O)(=O)N(C)C)C[C@@H]2c3cccc4c3c(cn4C)C[C@H]21 [mesulergine] | 108 | 102 | 105 | 98.9 | 108 | 111 | 106 | 107 | 96.1 | 102 | 101 | 99.3 | 106 | 108 | 100 | 103 | 100 | 101 | 101 | 99.9 | 97.5 | 104 | 94.1 | 97.9 | 94.9 | > 10 | > 10 | > 10 | > 10 | > 10 | 0 | 0 | 0 | 0 | 0
Clc1ccc(C(c2ccccc2Cl)C(Cl)Cl)cc1 (stereo not given) [mitotane] | 100 | 90.7 | 97.9 | 99.4 | 91.9 | 92.8 | 102 | 89.1 | 97.1 | 99.6 | 89.9 | 89.9 | 87.9 | 85.4 | 94.6 | 98.5 | 93.2 | 98.6 | 97.7 | 97.7 | 106 | 96.6 | 101 | 101 | 97.6 | > 10 | > 10 | > 10 | > 10 | > 10 | 0 | 0 | 0 | 0 | 0
O=C(OCCN1CCOCC1)c1cccnc1Nc1cccc(C(F)(F)F)c1 [morniflumate] | 120 | 103 | 99 | 102 | 80.1 | 91.9 | 97.1 | 102 | 106 | 108 | 90.8 | 93.8 | 87.3 | 94.7 | 88.4 | 96.5 | 104 | 97.8 | 97.8 | 97.3 | 107 | 100 | 102 | 105 | 99.3 | > 10 | > 10 | > 10 | > 10 | > 10 | 0.5 | 0 | 0 | 0 | 0
O=C1C[C@@H](c2ccc(O)cc2)Oc2cc(O)cc(O)c21 [naringenin] | 114 | 103 | 90.3 | 97.2 | 88.5 | 93.2 | 97.9 | 89.9 | 99.7 | 93.7 | 104 | 107 | 99.3 | 95.1 | 99.9 | 98.9 | 104 | 95.6 | 102 | 103 | 101 | 99.7 | 101 | 94 | 93.3 | > 10 | > 10 | > 10 | > 10 | > 10 | 0 | 0 | 0 | 0 | 0
NCCCCCC(O)(P(=O)(O)O)P(=O)(O)O [neridronic-acid] | 108 | 95 | 88.9 | 107 | 76.5 | 90.2 | 83.3 | 92 | 93.9 | 106 | 100 | 110 | 111 | 97.9 | 86.2 | 99.9 | 95.9 | 98.8 | 92.8 | 108 | 91.5 | 95.8 | 92.8 | 94.2 | 96.8 | > 10 | > 10 | > 10 | > 10 | > 10 | 0.6 | 0 | 0.3 | 0 | 0
Oc1ccc2c3c1O[C@H]1c4[nH]c5c(c4C[C@@]4(O)[C@@H](C2)N(CC2CC2)CC[C@]314)C[C@@]1(O)[C@H]2Cc3ccc(O)c4c3[C@@]1(CCN2CC1CC1)[C@H]5O4 [nor-binaltorphimine] | 97.9 | 90.4 | 100 | 102 | 106 | 105 | 99.9 | 100 | 106 | 102 | 93.7 | 108 | 111 | 105 | 99.2 | 103 | 109 | 106 | 98.6 | 99 | 92.5 | 98.3 | 91.2 | 95.7 | 108 | > 10 | > 10 | > 10 | > 10 | > 10 | 0 | 0 | 0 | 0 | 0
CC(C)(F)C[C@H](N[C@@H](c1ccc(-c2ccc(S(C)(=O)=O)cc2)cc1)C(F)(F)F)C(=O)NC1(C#N)CC1 [odanacatib] | 96.1 | 99.9 | 99.1 | 94.1 | 90.4 | 98.3 | 97.1 | 100 | 115 | 98.7 | 110 | 104 | 99.4 | 101 | 94.1 | 103 | 108 | 93.3 | 102 | 94.8 | 101 | 98.8 | 99.8 | 99.4 | 106 | > 10 | > 10 | > 10 | > 10 | > 10 | 0 | 0 | 0 | 0 | 0
CC(C)CCC[C@@H](C)[C@H]1CC[C@H]2[C@@H]3CCC4=CC(=NO)CC[C@]4(C)[C@H]3CC[C@]12C [olesoxime] | 99.2 | 87.1 | 102 | 97.6 | 99.1 | 97.3 | 95.6 | 90.7 | 100 | 93.9 | 100 | 96.5 | 95.3 | 103 | 97.4 | 101 | 95.9 | 98 | 95.3 | 100 | 97.2 | 98.6 | 96.5 | 98.6 | 94.3 | > 10 | > 10 | > 10 | > 10 | > 10 | 0 | 0 | 0 | 0 | 0
OCCOc1ccc(/C(=C(/CCCl)c2ccccc2)c2ccccc2)cc1 [ospemifene] | 103 | 108 | 104 | 91.3 | 78 | 96.7 | 103 | 106 | 96.6 | 101 | 99.5 | 97 | 103 | 107 | 106 | 98.4 | 104 | 98.1 | 101 | 93.1 | 97.9 | 102 | 101 | 99.9 | 94.2 | > 10 | > 10 | > 10 | > 10 | > 10 | 1.7 | 0 | 0 | 0 | 0
CCC(=O)NS(=O)(=O)c1ccc(-c2c(-c3ccccc3)noc2C)cc1 [parecoxib] | 99.5 | 96 | 96.6 | 98.9 | 95.7 | 106 | 94.3 | 94.4 | 92.5 | 108 | 88.9 | 90 | 94 | 94.2 | 90.1 | 103 | 113 | 103 | 94.1 | 99.2 | 97.7 | 101 | 95.6 | 95.6 | 93.6 | > 10 | > 10 | > 10 | > 10 | > 10 | 0 | 0 | 0 | 0 | 0
CCCCCCCCCCCCCCCCCCOP(=O)([O-])OC1CC[N+](C)(C)CC1 [perifosine] | 96.4 | 90.9 | 100 | 96.5 | 106 | 106 | 98 | 106 | 86.8 | 95.4 | 96.2 | 96 | 97.7 | 106 | 112 | 98.7 | 95.2 | 103 | 95 | 99.2 | 92.7 | 98.9 | 93.6 | 96.5 | 101 | > 10 | > 10 | > 10 | > 10 | > 10 | 0 | 0.8 | 0 | 0 | 0
